Assays:
[1] = tested on: T-cells (TCR binding of antigen specific tetramers); experiment: Tetramer staining of T-cells; format: cell-based, human; settings: T-cells expanded with 100 μM
Galectin-3 = experiment: Activated T-cell expression of Galectin-3 (FACS); format: cell-based, human; settings: CD3/CD28 activated T-cells, overnight
Protocol: Purified T-cells were plated in 12-well plates (10^6 cells/well, 1-2 mL T-cell medium) and were activated with CD3/CD28 beads (4 μL beads/2 mL media, Miltenyi Biotec). Cells were incubated at 37° C. overnight and were then analyzed for Galectin-3 expression after fixation and permeabilization followed by FACS analysis.

SMAD2 = experiment: TGFβ signaling, pSMAD2 western blot in T-cells; format: cell-based, human; settings: TGFβ 5 ng/mL for 10 min after 6 h serum starvation
Protocol: Cells were plated in 6-well dishes (2.5×10^6 cells/well) with serum-free RPMI medium (1% PS, 2.5 mL) and after 6 h of serum starvation, cells were stimulated with TGFβ (5 ng/mL) for 10 min. The cells were harvested, washed twice in PBS, and snap frozen on dry ice followed by storage at −80 ° C. Cells were lysed with RIPA buffer (containing DNAse and protease/phosphatase inhibitors). As described previously, cell lysates were run on SDS-PAGE and examined by western blot on nitrocellulose membranes with anti-pSMAD2 and anti-actin antibodies.

regulatory T-cells = experiment: Regulatory T-cell and FOXp3 analysis in T-cell cultures (FACS); format: cell-based, human; settings: T-cell culture
Protocol: Regulatory T-cells in cultures were identified using the Human Regulatory T-cell Cocktail (BD Pharmingen™) and analyzed using FACS. Briefly, cells were washed into BD stain buffer (BSA) with human Fc block (EMD Millipore) and incubated on ice for 30 min. Cells were then stained with fluorescently labeled Human Regulatory T-cell Cocktail (BD Pharmingen™, 1:100 in BD stain buffer (BSA)) or with appropriate isotype controls (ice, dark, 40 min). Cells were then washed twice in BD stain buffer (BSA) and analyzed on an LSRII flow cytometer. Regulatory T-cells were identified as CD4+, CD25+ and CD127 LOW.
T-cells were prepared in the same manner as for intracellular staining as above, where they were fixed and permeabilized and stained with an anti-FOXp3 antibody (BD Biosciences) and analyzed by FACS. In brief, after incubation in BD stain buffer (FBS) with Human Fc block (Miltenyi Biotec) on ice for 30 min as described previously, cells were stained with anti-CD4 antibody for 20 min in the dark (RT). An equal volume of BD stain buffer (FBS) was added and samples were spun and washed once in BD stain buffer (FBS) followed by resuspension in cold BD Cytofix™ fixation buffer for 30 min at RT. Cells were pelleted washed twice in BD stain buffer (FBS), resuspended, and incubated in BD Perm/Wash™ buffer at RT for 30 min. […]

[2] = tested on: regulatory T-cells (CD3+, CD4+, CD25+, FOXp3+); experiment: Regulatory T-cells in blood of rats dosed by oral gavage for 42 days (flow cytometry); format: in vivo, Sprague-Dawley rats; settings: for Treg % Gated, percent change relative to pretest means: rat
Protocol: Sprague-Dawley rats (CD®[Crl:CD®(SD)] were administered 2-deoxy-2-fluoro-L-fucose by oral gavage daily for 42 consecutive days at doses of 0, 125, 500 or 2000 mg/kg/day. Blood samples (0.4 mL/timepoint) were collected in sodium heparin at pretest and days 2, 7, 22, 43, 49, 56, and 71 of the study. Samples were processed within 24 hours of collection. Aliquots of the specimens were stained with predetermined volumes of previously tested and titered monoclonal antibodies specific for each marker. The red cells in each tube were lysed and after staining the cells were fixed with Versalyse Lysis Buffer solution (Beckman Coulter). The prepared specimens were analyzed on a Beckman-Coulter FC 500 MPL flow cytometer.

## C[C@@H]1OC(O)[C@@H](F)[C@H](O)[C@@H]1O (stereo partly drawn) [2-deoxy-2-fluoro-L-fucose]
[1]
  EBV-specific tetramer binding to treated T-cells vs control cells (flow cytometry): increase in EBV-specific tetramer binding
  tetramer binding with other antigens (flu, CMV) to treated T-cells vs control cells: slight increases
Galectin-3
  galectin-3 levels in T-cells: reduction in galectin-3 levels
SMAD2
  SMAD2 phosphorylation following TGFβ stimulation vs control T-cells: reduced SMAD2 phosphorylation
Regulatory T-cells; CD4+, CD25+, CD127 LOW
  regulatory T-cell populations (percent of total cells): decrease in regulatory T-cell populations
Regulatory T-cells; gated on CD4+
  expression of FOXp3+ in treated T-cells: decreased expression of FOXp3+
[2]; F, 125 mg/kg/day oral gavage, Day 2
  Treg % Gated, percent change relative to pretest means: −54%
[2]; F, 125 mg/kg/day oral gavage, Day 7
  Treg % Gated, percent change relative to pretest means: −67%
[2]; F, 125 mg/kg/day oral gavage, Day 22
  Treg % Gated, percent change relative to pretest means: −61%
[2]; F, 125 mg/kg/day oral gavage, Day 43
  Treg % Gated, percent change relative to pretest means: −64%
[2]; F, 125 mg/kg/day oral gavage, Day 49, recovery period
  Treg % Gated, percent change relative to pretest means: −40%
[2]; F, 125 mg/kg/day oral gavage, Day 56, recovery period
  Treg % Gated, percent change relative to pretest means: −51%
[2]; F, 125 mg/kg/day oral gavage, Day 71, recovery period
  Treg % Gated, percent change relative to pretest means: −45%
[2]; F, 500 mg/kg/day oral gavage, Day 2
  Treg % Gated, percent change relative to pretest means: −56%
[2]; F, 500 mg/kg/day oral gavage, Day 7
  Treg % Gated, percent change relative to pretest means: −60%
[2]; F, 500 mg/kg/day oral gavage, Day 22
  Treg % Gated, percent change relative to pretest means: −60%
[2]; F, 500 mg/kg/day oral gavage, Day 43
  Treg % Gated, percent change relative to pretest means: −50%
[2]; F, 500 mg/kg/day oral gavage, Day 49, recovery period
  Treg % Gated, percent change relative to pretest means: −43%
[2]; F, 500 mg/kg/day oral gavage, Day 56, recovery period
  Treg % Gated, percent change relative to pretest means: −38%
[2]; F, 500 mg/kg/day oral gavage, Day 71, recovery period
  Treg % Gated, percent change relative to pretest means: −40%
[2]; F, 2000 mg/kg/day oral gavage, Day 2
  Treg % Gated, percent change relative to pretest means: −41%
[2]; F, 2000 mg/kg/day oral gavage, Day 7
  Treg % Gated, percent change relative to pretest means: −39%
[2]; F, 2000 mg/kg/day oral gavage, Day 22
  Treg % Gated, percent change relative to pretest means: −43%
[2]; F, 2000 mg/kg/day oral gavage, Day 43
  Treg % Gated, percent change relative to pretest means: −28%
[2]; F, 2000 mg/kg/day oral gavage, Day 49, recovery period
  Treg % Gated, percent change relative to pretest means: −19%
[2]; F, 2000 mg/kg/day oral gavage, Day 56, recovery period
  Treg % Gated, percent change relative to pretest means: −16%
[2]; F, 2000 mg/kg/day oral gavage, Day 71, recovery period
  Treg % Gated, percent change relative to pretest means: −26%
[2]; M, 125 mg/kg/day oral gavage, Day 2
  Treg % Gated, percent change relative to pretest means: −44%
[2]; M, 125 mg/kg/day oral gavage, Day 7
  Treg % Gated, percent change relative to pretest means: −64%
[2]; M, 125 mg/kg/day oral gavage, Day 22
  Treg % Gated, percent change relative to pretest means: −65%
[2]; M, 125 mg/kg/day oral gavage, Day 43
  Treg % Gated, percent change relative to pretest means: −59%
[2]; M, 125 mg/kg/day oral gavage, Day 49, recovery period
  Treg % Gated, percent change relative to pretest means: −46%
[2]; M, 125 mg/kg/day oral gavage, Day 56, recovery period
  Treg % Gated, percent change relative to pretest means: −47%
[2]; M, 125 mg/kg/day oral gavage, Day 71, recovery period
  Treg % Gated, percent change relative to pretest means: −42%
[2]; M, 500 mg/kg/day oral gavage, Day 2
  Treg % Gated, percent change relative to pretest means: −61%
[2]; M, 500 mg/kg/day oral gavage, Day 7
  Treg % Gated, percent change relative to pretest means: −63%
[2]; M, 500 mg/kg/day oral gavage, Day 22
  Treg % Gated, percent change relative to pretest means: −64%
[2]; M, 500 mg/kg/day oral gavage, Day 43
  Treg % Gated, percent change relative to pretest means: −58%
[2]; M, 500 mg/kg/day oral gavage, Day 49, recovery period
  Treg % Gated, percent change relative to pretest means: −48%
[2]; M, 500 mg/kg/day oral gavage, Day 56, recovery period
  Treg % Gated, percent change relative to pretest means: −47%
[2]; M, 500 mg/kg/day oral gavage, Day 71, recovery period
  Treg % Gated, percent change relative to pretest means: −48%
[2]; M, 2000 mg/kg/day oral gavage, Day 2
  Treg % Gated, percent change relative to pretest means: −42%
[2]; M, 2000 mg/kg/day oral gavage, Day 7
  Treg % Gated, percent change relative to pretest means: −43%
[2]; M, 2000 mg/kg/day oral gavage, Day 22
  Treg % Gated, percent change relative to pretest means: −51%
[2]; M, 2000 mg/kg/day oral gavage, Day 43
  Treg % Gated, percent change relative to pretest means: −29%
[2]; M, 2000 mg/kg/day oral gavage, Day 49, recovery period
  Treg % Gated, percent change relative to pretest means: −6%
[2]; M, 2000 mg/kg/day oral gavage, Day 56, recovery period
  Treg % Gated, percent change relative to pretest means: −12%
[2]; M, 2000 mg/kg/day oral gavage, Day 71, recovery period
  Treg % Gated, percent change relative to pretest means: −13%
[2]; rats, all dosed groups (125, 500, 2000 mg/kg/day), beginning at Day 2
  relative proportion of regulatory T-cells (CD3+, CD4+, CD25+, FOXp3+) relative to pretest values: tended to decrease
